Assay [1] deals with T1, NHE3 (Homo sapiens, UniProt P48764).
T1 construct: expressed in transfected cells
T1 sequence (P48764 26-834): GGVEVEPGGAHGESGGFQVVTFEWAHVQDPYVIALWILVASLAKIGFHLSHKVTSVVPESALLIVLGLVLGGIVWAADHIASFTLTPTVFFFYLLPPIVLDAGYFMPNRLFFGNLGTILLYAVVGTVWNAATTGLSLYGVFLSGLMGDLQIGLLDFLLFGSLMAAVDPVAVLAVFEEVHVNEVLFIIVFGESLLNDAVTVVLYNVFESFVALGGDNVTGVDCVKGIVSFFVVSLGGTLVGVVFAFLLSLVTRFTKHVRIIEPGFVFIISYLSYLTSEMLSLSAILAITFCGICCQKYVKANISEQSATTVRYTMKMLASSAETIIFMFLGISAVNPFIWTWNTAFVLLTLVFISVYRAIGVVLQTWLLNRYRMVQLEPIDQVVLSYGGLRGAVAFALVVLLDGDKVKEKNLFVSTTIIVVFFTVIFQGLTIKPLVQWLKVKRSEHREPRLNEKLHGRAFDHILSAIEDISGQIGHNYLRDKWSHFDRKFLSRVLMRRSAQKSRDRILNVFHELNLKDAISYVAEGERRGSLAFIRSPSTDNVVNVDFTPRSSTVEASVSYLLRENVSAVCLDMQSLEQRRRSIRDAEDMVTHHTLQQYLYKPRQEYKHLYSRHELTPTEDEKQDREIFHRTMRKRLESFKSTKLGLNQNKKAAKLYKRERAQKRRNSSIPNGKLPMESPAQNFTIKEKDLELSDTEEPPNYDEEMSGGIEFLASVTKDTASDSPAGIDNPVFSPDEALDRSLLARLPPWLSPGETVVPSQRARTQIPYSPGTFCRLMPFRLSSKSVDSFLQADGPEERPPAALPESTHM
T1 sequence (Q99653 2-195 partner limits assumed): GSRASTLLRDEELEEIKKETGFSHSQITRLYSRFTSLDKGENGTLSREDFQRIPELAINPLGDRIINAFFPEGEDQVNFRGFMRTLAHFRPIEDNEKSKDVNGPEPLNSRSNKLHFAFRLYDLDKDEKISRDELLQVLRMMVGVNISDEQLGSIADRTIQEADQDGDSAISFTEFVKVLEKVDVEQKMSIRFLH
The assay is described as follows: Cell-based assay of NHE-3 activity (pre-incubation inhibition), human. The following applies: human Preincubation; for pIC50: 0-30 μM test compound. The protocol: Rat and human NHE-3-mediated Na^+-dependent H^+ antiport was measured using a modification of the pH sensitive dye method originally reported by Paradiso (Proc. Natl. Acad. Sci. USA. (1984) 81(23): 7436-7440). PS120 fibroblasts stably expressing human NHE3 and NHERF2 were obtained from Mark Donowitz (Baltimore, Md.). Opossum kidney (OK) cells were obtained from the ATCC and propagated per their instructions. The rat NHE-3 gene (GenBank M85300) was introduced into OK cells via electroporation, and cells were seeded into 96 well plates and grown overnight. Medium was aspirated from the wells then incubated for 30 min at 37° C. with NH4Cl-HEPES buffer (20 mM NH4Cl, 80 mM NaCl, 50 mM HEPES, 5 mM KCl, 2 mM CaCl2, 1 mM MgCl2, pH 7.4) containing 5 μM BCECF-AM. Cells were washed once with Ammonium free, Na^+-free HEPES (100 mM choline, 50 mM HEPES, 10 mM glucose, 5 mM KCl, 2 mM CaCl2, 1 mM MgCl2, pH 7.4) and incubated in the same buffer for 10 minutes at room temperature to lower intracellular pH with 0-30 μM test compound. […] Changes in intracellular pH were monitored using a FLIPR Tetra® (Molecular Devices, Sunnyvale, Calif.) by excitation at λex 439 to 505 nm, and measuring BCECF fluorescence at λem 538 nm. The initial rate of the fluorescence ratio change was used as a measure of NHE-mediated Na^+/H^+ activity, and reported as the change in fluorescence ratio per minute.

Assay [2] concerns the target T1, NHE3. The assay is described as follows: Cell-based assay of NHE-3 activity (persistent inhibition), human. As to conditions: human Persistence, 60 min incubation then washout. The protocol:
The ability of compounds to inhibit human and rat NHE-3-mediated Na^+ dependent H^+ antiport after application and washout was measured using a modification of the pH sensitive dye method described above. PS120 fibroblasts stably expressing human NHE3 and NHERF2 were obtained from Mark Donowitz (Baltimore, Md.). Opossum kidney (OK) cells were obtained from the ATCC and propagated per their instructions. The rat NHE-3 gene was introduced into OK cells via electroporation, and cells were seeded into 96 well plates and grown overnight. Medium was aspirated from the wells, cells were washed once with NaCl-HEPES buffer (100 mM NaCl, 50 mM HEPES, 10 mM glucose, 5 mM KCl, 2 mM CaCl2, 1 mM MgCl2, pH 7.4), then overlayed with NaCl-HEPES buffer containing 0-30 μM test compound. After a 60 min incubation at room temperature, the test drug containing buffer was aspirated from the cells. Following aspiration, cells were washed once with NaCl-HEPES buffer without drug, then incubated for 30 min at 37° C. with NH4Cl-HEPES buffer (20 mM NH4Cl, 80 mM NaCl, 50 mM HEPES, 5 mM KCl, 2 mM CaCl2, 1 mM MgCl2, pH 7.4) containing 5 μM BCECF-AM. Cells were washed once with Ammonium free, Na^+-free HEPES (100 mM choline, 50 mM HEPES, 10 mM glucose, 5 mM KCl, 2 mM CaCl2, 1 mM MgCl2, pH 7.4) and incubated in the same buffer for 10 minutes at room temperature to lower intracellular pH. NHE-3-mediated recovery of neutral intracellular pH was initiated (10 min after compound washout) by addition of Na-HEPES buffer. […] Changes in intracellular pH were monitored using a FLIPR Tetra® (Molecular Devices, Sunnyvale, Calif.) by excitation at λex 439 to 505 nm, and measuring BCECF fluorescence at λem 538 nm. The initial rate of the fluorescence ratio change was used as a measure of NHE-mediated Na^+/H^+ activity, and reported as the change in fluorescence ratio per minute.

This note sets out measurements from patent US11242337B2, “Compounds useful for treating gastrointestinal tract disorders” (Ardelyx, Inc., priority 2017, dated 2022).

SMILES strings stand for the structures.

As to `Cc1cc(S(=O)(=O)NCCOCCOCCNC(=O)NCCCCNC(=O)NCCOCCOCCNS(=O)(=O)c2ccc(O[C@H]3c4cc(Cl)cc(Cl)c4C[C@@H]3N3CCC[C@@H](N)C3)c(C)c2)ccc1O[C@H]1c2cc(Cl)cc(Cl)c2C[C@@H]1N1CCC[C@@H](N)C1` [Example 1, 1-[2-(2-[2-[(4-[[(1S,2S)-2-[(3R)-3-Aminopiperidin-1-yl]-4,6-dichloro-2,3-dihydro-1H-inden-1-yl]oxy]-3-methylbenzene)sulfonamido]ethoxy]ethoxy)ethyl]-3-[4-([[2-(2-[2-([4-[[(1S,2S)-2-[(3R)-3-aminopiperidin-1-yl]-4,6-dichloro-2,3-dihydro-1H-inden-1-yl]oxy]-3-methylbenzene)sulfonamido]ethoxy]ethoxy)ethyl]carbamoyl]amino)butyl]urea], at NHE3 [1], the “% inhibition” value was “C (>70%)” and the pIC50 entry is “C (NHE3 pIC50 > 7)”. Also, at NHE3 [2], the “% inhibition” value is recorded as “B (40-70%)” and the pIC50 entry is on record as “C (NHE3 pIC50 > 7)”.
For the molecule `N[C@@H]1CCCN([C@H]2Cc3c(Cl)cc(Cl)cc3[C@@H]2Oc2ccc(S(=O)(=O)NCCOCCOCCNC(=O)NCCCCNC(=O)NCCOCCOCCNS(=O)(=O)c3ccc(O[C@H]4c5cc(Cl)cc(Cl)c5C[C@@H]4N4CCC[C@@H](N)C4)c(F)c3)cc2F)C1` [Example 2], the “% inhibition” value at NHE3 [1] and on NHE3 [2] was “C (>70%)” throughout.
In the case of `Cc1cc(Cl)cc2c1C[C@H](N1CCC[C@@H](N)C1)[C@H]2Oc1ccc(S(=O)(=O)NCCOCCOCCNC(=O)NCCCCNC(=O)NCCOCCOCCNS(=O)(=O)c2ccc(O[C@H]3c4cc(Cl)cc(C)c4C[C@@H]3N3CCC[C@@H](N)C3)cc2)cc1` [Example 3, 3-[2-(2-[2-[(4-[[(1S,2S)-2-[(3R)-3-Aminopiperidin-1-yl]-6-chloro-4-methyl-2,3-dihydro-1H-inden-1-yl]oxy]benzene)sulfonamido]ethoxy]ethoxy)ethyl]-1-[4-([[2-(2-[2-[(4-[[(1S,2S)-2-[(3R)-3-aminopiperidin-1-yl]-6-chloro-4-methyl-2,3-dihydro-1H-inden-1-yl]oxy]benzene)sulfonamido]ethoxy]ethoxy)ethyl]carbamoyl]amino)butyl]urea], the “% inhibition” value at NHE3 [1] and on NHE3 [2] was “C (>70%)” throughout.
Take `N#Cc1cc(Cl)cc2c1C[C@H](N1CCC[C@@H](N)C1)[C@H]2Oc1ccc(S(=O)(=O)NCCOCCOCCNC(=O)NCCCCNC(=O)NCCOCCOCCNS(=O)(=O)c2ccc(O[C@H]3c4cc(Cl)cc(C#N)c4C[C@@H]3N3CCC[C@@H](N)C3)cc2)cc1` [Example 4, 3-[2-(2-[2-[(4-[[(1S,2S)-2-[(3R)-3-Aminopiperidin-1-yl]-6-chloro-4-cyano-2,3-dihydro-1H-inden-1-yl]oxy]benzene)sulfonamido]ethoxy]ethoxy)ethyl]-1-[4-([[2-(2-[2-[(4-[[(1S,2)-2-[(3R)-3-aminopiperidin-1-yl]-6-chloro-4-cyano-2,3-dihydro-1H-inden-1-yl]oxy]benzene)sulfonamido]ethoxy]ethoxy)ethyl]carbamoyl]amino)butyl]urea; bis(trifluoroacetic acid)]: the “% inhibition” value on NHE3 [1] and on NHE3 [2] was “B (40-70%)” throughout.
`COc1cc(Cl)cc2c1C[C@H](N1CCC[C@@H](N)C1)[C@H]2Oc1ccc(S(=O)(=O)NCCOCCOCCNC(=O)NCCCCNC(=O)NCCOCCOCCNS(=O)(=O)c2ccc(O[C@H]3c4cc(Cl)cc(OC)c4C[C@@H]3N3CCC[C@@H](N)C3)cc2)cc1` [Example 5, 3-[2-(2-[2-[(4-[[(1S,2S)-2-[(3R)-3-Aminopiperidin-1 yl]-6-chloro-4-methoxy-2,3-dihydro-1H-inden-1-yl]oxy]benzene)sulfonamido]ethoxy]ethoxy)ethyl]-1-[4-[[(2-(2-[2-[(4-[[(1S,2S)-2-[(3R)-3-aminopiperidin-1-yl]-6-chloro-4-methoxy-2,3-dihydro-1H-inden-1-yl]oxy]benzene)sulfonamido]ethoxy]ethoxy)ethyl]carbamoyl]amino)butyl]urea; bis(trifluoroacetic acid)]: the “% inhibition” value at NHE3 [1] is reported as “B (40-70%)”; on NHE3 [2] it was “C (>70%)”.
Regarding `Cc1cc(S(=O)(=O)NCCOCCOCCNC(=O)NCCCCNC(=O)NCCOCCOCCNS(=O)(=O)c2ccc(O[C@H]3c4cc(Cl)cc(F)c4C[C@@H]3N3CCC[C@@H](N)C3)c(C)c2)ccc1O[C@H]1c2cc(Cl)cc(F)c2C[C@@H]1N1CCC[C@@H](N)C1` [Example 6], on NHE3 [1], the “% inhibition” value was “A (NHE3 < 40%)” and the pIC50 result is reported as “A (NHE3 pIC50 < 6)”. On NHE3 [2], the “% inhibition” value is listed as “A (NHE3 < 40%)” and the pIC50 entry is given as “A (NHE3 pIC50 < 6)”.
With `Cc1cc(S(=O)(=O)NCCOCCOCCNC(=O)NCCCCNC(=O)NCCOCCOCCNS(=O)(=O)c2ccc(O[C@H]3c4cc(Cl)cc(C)c4C[C@@H]3N3CCC[C@@H](N)C3)c(C)c2)ccc1O[C@H]1c2cc(Cl)cc(C)c2C[C@@H]1N1CCC[C@@H](N)C1` [Example 7, 3-[2-(2-[2-[(4-[[(1S,2S)-2-[(3R)-3-Aminopiperidin-1-yl]-6-chloro-4-methyl-2,3-dihydro-1H-inden-1-yl]oxy]-3-methylbenzene)sulfonamido]ethoxy]ethoxy)ethyl]-1-[4-([[2-(2-[2-[(4-[[(1S,2S)-2-[(3R)-3-aminopiperidin-1-yl]-6-chloro-4-methyl-2,3-dihydro-1H-inden-1-yl]oxy]-3-methylbenzene)sulfonamido]ethoxy]ethoxy)ethyl]carbamoyl]amino)butyl]urea], the “% inhibition” value at NHE3 [1] and on NHE3 [2] was “C (>70%)” each time.
